Experimental data from US4585773A, “Isoindolinyl-alkyl-piperazines” (Bristol-Myers Company, priority 1984, dated 1986).
Values joined by “and” are separate entries in the source; they are usually repeats but may differ in a detail not shown here. Equal values may be shown once. Where a name gives a salt, the structure may show the parent alone. Read-outs that look alike come from different tables or passages of the source.

Legend:
[1] = tested on: Spontaneously Hypertensive rat; assay: antihypertensive activity, Spontaneously Hypertensive Rat (Table II); type: in vivo; settings: for antihypertensive effect (in words): conclusion from Table II (SHR, and DOCA for Examples I-IV)
Experimental: Spontaneously Hypertensive Rat Male rats weighing 300-400 g, previously conditioned to the procedure, are prewarmed in a heating chamber (30° C.) for 10-20 min. and subsequently restrained in a wire holder at that temperature. Systolic blood pressure and heart rate are measured by the tailcuff technique using a pneumatic pulse transducer and a biotachometer before, and 2, 4, and 24 hours after oral administration of vehicle (0.25% Methocel in water) or test compounds suspended in vehicle at a dose volume equivalent to 5 ml/kg. Blood pressure and heart rate data are reported as changes from zero-hour measurements with vehicle control groups run periodically to confirm that the vehicle has no effect. Testing was carried out on the compounds of Examples I-XII for antihypertensive activity. In the case of all the compounds testing was carried out on the Spontaneously Hypertensive rat as described hereinbefore. In the case of the compounds of Examples I-IV testing was also carried out on the DOCA-salt Hypertensive Rat. The compound of Example I was tested as its monochloride 2-propanolate hydrate, i.e. as C22 […] ClN4 O4 S.HCl.0.2(CH3)2 CHOH.0.15H2 O in Tests 1-5; and as the 3/4 mole hydrochloride, i.e. C22 […] ClN4 O4 S: 3/4 HCl in Tests 3a, 4a, 5a-5d. Test results are set forth in Table II below wherein SHR stands for Spontaneously Hypertensive rat, DOCA stands for DOCA-salt Hypertensive Rat, ΔBP stands for the change in systolic blood pressure in mm Hg, ΔHR stands for the change in mean heart rate in beats per minute and the times set forth are the times after dosing. A peak change in ΔBP of more than 20 is considered as indicating activity.

α2 = assay: in vitro α2 binding, [3H]Clonidine (Table IV)
Experimental: (§1) In this Example the compounds of Examples I-XI were tested in vitro for α1 and α2 binding. The compound of Example I was tested as its monochloride 2-propanolate hydrate, i.e. as C22 […] CLN4 O4 S .HCl.0.2(CH3)2 CHOH 0.15H2 O. In the testing specific brain tissues were prepared as sources of binding sites. Aliquots of the washed members are incubated with a low concentration of […]. After incubation at suitable temperature, the reaction mixture is treated to separate the membrane-bound radioligand Radioactivity is measured. Linear regression analysis of the probit value for the percent of binding occurring in the presence of varying concentrations of the compound of interest plotted against the concentration of the compound yields concentrations which inhibit 50% specific binding, the IC50. The assay buffer is 50 mM Hepes.KOH, pH 7.4. The ligand is [^3 H]WB-4101 from New England Nuclear for α1 and [^3 H]Clonidine from New England Nuclear for α2. The results are considered against phentolamine methanesulfonate (Reference) which is considered a good α-binder.

[2] = conscious rat diuretic screen of Lipschitz (Table I); type: in vivo, rat (female Sprague Dawley; male Okamoto-Aoki); settings: female Sprague Dawley rats; for response vs control in vivo at 3 mg/kg / response vs control in vivo at 30 mg/kg / response vs control in vivo at 0.3 mg/kg: Rattus norvegicus, po
Experimental: With respect to diuretic utility there can be mentioned the conscious rat diuretic screen of Lipschitz, et al. (J. Pharmacol. Exp. Therap. 79, 97-110 (1943)). In this test, dose response assays of diuretic, natruiretic and kaliuretic activity are determined by oral administration of the test substance. The compounds synthesized in Examples I-XI were tested for diuretic […]. The compound of Example I was tested as its monohydrochloride 2-propanolate hydrate, i.e. as C22 […] ClN4 O4 S.HCl. 0.2(CH3)2 CHOH.0.15H2 O. Testing was carried out by the diuretic screen of Lipschitz, et al. described previously. In Table I below Volume Ratio is the ratio of total volume excreted for the test comuound compared to the total volume excreted for the control, Na^+ Ratio is the Na^+ excreted for the test compound compared to the Na^+ excreted for the control, K^+ Ratio is the K^+ excreted for the test compound compared to the K^+ excreted for the control. Female Sprague Dawley rats were used in Test Nos. 1, 2, 6, 7, 11-29. Male Okamoto-Aoki rats were used in Test Nos. 3-5 and 8-10 and testing for antihypertensive activity was carried out simultaneously on the Test Nos. 3-5 rats. In some instances, compounds were retested at the same dose level.

[3] = tested on: α blocking activity (phenylephrine); assay: in vivo α blocking activity, phenylephrine (PE) as α-agonist (Table III); parameters: species or system rat; ED50: unit not given beside the values; settings: for in vivo α blocking activity (in words): conclusion from Table III
Experimental: In this example the compounds of Examples I (modified), II, III, V, VI, VII, VIII, IX and XI were tested in rats for in vivo α blocking activity according to methodology described at page 312 of Deitchman, et al., Journal of Pharmacological Methods, 3, 311-321 (1980). In this test phenylephrine (PE below) or norepinephrine (NE below) was administered as an α-agonist to the rats before and after dosing with the test drug and the average interpolated dose or PE/NE effecting a 50 mm Hg increase in mean arterial blood pressure was determined. Table III below records the results. In such Table, ED50 stands for such average interpolated dose and Average Dose Shift stands for the average ratio of ED50 after drug administration to ED50 before drug administration. The compound of Example I was tested as its monochloride 2-propanolate hydrate, i.e. as C22 H27 ClN4 O4 S.HCl 0.2(CH3)2 CHOH.0.15H2 O in Tests 1-5 and as the 3/4 mole hydrochloride, i.e. C22 H27 ClN 4 O4 S.3/4HCL in Tests 2a and 3a. The route was intravenous except in the case of the runs of Test Nos. 2a, 3, 3a, 26-29 the route was oral.

α1 = assay: in vitro α1 binding, [3H]WB-4101 (Table IV)
Experimental: as §1

[4] = [3H]Clonidine, brain tissue, 50 mM Hepes.KOH, pH 7.4, read-out: α2 Binding IC50
[5] = 3 mg/kg oral, read-out: K+ Ratio
[6] = 3 mg/kg oral, read-out: Na+ Ratio
[7] = 3 mg/kg oral, read-out: Volume Ratio
[8] = 30 mg/kg oral, read-out: K+ Ratio
[9] = 30 mg/kg oral, read-out: Na+ Ratio
[10] = 30 mg/kg oral, read-out: Volume Ratio
[11] = ED50 after/before drug, PE, dose 10, intravenous
[12] = [3H]WB-4101, brain tissue, 50 mM Hepes.KOH, pH 7.4, read-out: α1 Binding IC50

IC50 (α2; [4]) [nM]	IC50 (α1; [12]) [nM]	Structure (SMILES)	ΔBP 2 hours ([1]; SHR, 30 mg/kg oral) [mm Hg]	ΔBP 4 hours ([1]; SHR, 30 mg/kg oral) [mm Hg]	ΔHR 2 hours ([1]; SHR, 30 mg/kg oral) [beats per minute]	ΔHR 4 hours ([1]; SHR, 30 mg/kg oral) [beats per minute]	antihypertensive effect (in words) [1]	Urinary Na/K (Test Compound) ([2]; 3 mg/kg oral)	Urinary Na/K (Test Compound) ([2]; 30 mg/kg oral)	response vs control in vivo at 3 mg/kg [2, 5] [%]	response vs control in vivo at 3 mg/kg [2, 6] [%]	response vs control in vivo at 3 mg/kg [2, 7] [%]	response vs control in vivo at 30 mg/kg [2, 8] [%]	response vs control in vivo at 30 mg/kg [2, 9] [%]	response vs control in vivo at 30 mg/kg [2, 10] [%]	Average Dose Shift [3, 11]	further results
> 1000	108	NS(=O)(=O)c1cc2c(cc1Cl)CN(CCCN1CCN(c3cccc(C(F)(F)F)c3)CC1)C2=O [Example IX, 6-chloro-2,3-dihydro-3-oxo-2-[3-[4-[3-(trifluoromethyl)phenyl]-1-piperazinyl]propyl]-1H-isoindole-5-sulfonamide hydrochloride hemihydrate]	-34 ± 14	-32 ± 10	6 ± 17	0 ± 14	good antihypertensive effect without significantly affecting heart rate	2.99	3.67	106	127	102	140	212	184	6 ± 0.6	in vivo α blocking activity (in words) [3]: weakly active; Average Dose Shift ([3]; iv): 2.2; ED50 ([3]; iv): 11.3
1780	933	NS(=O)(=O)c1cc2c(cc1Cl)CN(CCCN1CCN(Cc3ccccc3)CC1)C2=O [Example V, 6-chloro-2,3-dihydro-3-oxo-2-[3-[4-(phenylmethyl)-1-piperazinyl]propyl]-1H-isoindole-5-sulfonamide]	-27 ± 10	-30 ± 14	-6 ± 15	-39 ± 14	good antihypertensive effect without significantly affecting heart rate		4.14		145	128	133	271	220	1.7 ± 0.3	Urinary Na/K (Test Compound) ([2]; 0.3 mg/kg oral): 2.33; response vs control in vivo at 0.3 mg/kg ([2]; 0.3 mg/kg oral, read-out: K+ Ratio): 99%; response vs control in vivo at 0.3 mg/kg ([2]; 0.3 mg/kg oral, read-out: Na+ Ratio): 97%; response vs control in vivo at 0.3 mg/kg ([2]; 0.3 mg/kg oral, read-out: Volume Ratio): 89%
3330	305	Cl.N#Cc1cccnc1N1CCN(CCCN2Cc3cc(Cl)c(S(N)(=O)=O)cc3C2=O)CC1 [Example VI, 6-chloro-2-[3-[4-(3-cyano-2-pyridinyl)-1-piperazinyl]propyl]-2,3-dihydro-3-oxo-1H-isoindole-5-sulfonamide hydrochloride]	-17 ± 10	-7 ± 11	6 ± 41	-10 ± 18		3.55	3.90	98	169	153	111	204	174	27 ± 3	in vivo α blocking activity (in words) [3]: active as in vivo α blockers; Average Dose Shift ([3]; iv): 3 ± 0.2; ED50 ([3]; iv): 9.8
> 1000	152000	Cl.NS(=O)(=O)c1cc2c(cc1Cl)CN(CCCN1CCN(C(=O)c3ccccc3)CC1)C2=O.O [Example VII, 1-[3-[5-(aminosulfonyl)-6-chloro-1,3-dihydro-3-oxo-2H-isoindol-2-yl]propyl]-4-benzoylpiperazine hydrochloride monohydrate]	-7 ± 8	-14 ± 3	-32 ± 14	-74 ± 24		2.07	3.27	113	92	89	111	140	112	> 1.0	ED50 ([3]; ED50 of PE after test drug, dose 10, intravenous): 2.6
> 1000	144000	NS(=O)(=O)c1cc2c(cc1Cl)CN(CCCN1CCN(C(=O)c3ccc(F)cc3)CC1)C2=O [Example VIII, 1-[3-[5-(Aminosulfonyl)-6-chloro-1,3-dihydro-3-oxo-2H-isoindol-2-yl]propyl]-4-(4-fluorobenzoyl)piperazine]	-9 ± 5	-9 ± 4	2 ± 15	24 ± 15		2.60	3.69	94	98	89	99	142	122	1 ± 0.1	
		COc1ccc(F)cc1N1CCN(CCCN2Cc3cc(Cl)c(S(N)(=O)=O)cc3C2=O)CC1 [Example XII, 6-chloro-2,3-dihydro-2-[3-[4-(3-fluoro-6-methoxyphenyl)-1-piperazinyl]propyl]-3-oxo-1H-isoindole-5-sulfonamide]					good antihypertensive effect without significantly affecting heart rate										peak change at 2 hours in ΔBP ([1]; SHR, 30 mg/kg oral): -64 mm Hg
		Cc1ccc(N(CC2=NCCN2)c2cccc(O)c2)cc1 [phentolamine methanesulfonate, reference compound]															IC50 (α2; phentolamine methanesulfonate reference run in the α2 tests, read-out: Reference IC50): 5.45 nM and 3.12 nM; IC50 (α1; phentolamine methanesulfonate reference run in the α1 tests, read-out: Reference IC50): 3.68 nM and 3.47 nM and 4.76 nM
